{
  "source": "paper PMC10741632",
  "about": "“Detection of Dibutyl Phthalate in Surface Water by Fluorescence Polarization Immunoassay” (Biosensors, 2023)",
  "test_system": "monoclonal antibody against DBP (MAb-DBP)",
  "assay": "competitive fluorescence polarization immunoassay with DBP-AMF tracer ([…] MAb-DBP, […] tracer)",
  "format": "binding, Mus musculus",
  "data": [
    {"smiles": "CCCCOC(=O)c1ccccc1C(=O)OCCCC", "note": "[Dibutyl phthalate]", "values": [
      {"measurement": "IC50", "result": "0.04 ± 0.002", "unit": "µg/mL"}
    ]}
  ]
}
